Test results as given in patent US10934278B2, “Compounds” (Autifony Therapeutics Limited, priority 2016, dated 2021).

Columns and labels:
[1] = test system: rat model of neuropathic pain; assay: Neuropathic pain model, partial ligation of the sciatic nerve, paw withdrawal thresholds; assay type: in vivo; conditions: for Peak reversal of mechanical sensitivity: 3 h post-dose
Experimental: (§1) Subjects comprised male, Wistar Hanover rats, 6 animals per group (225±2 g).
(§2) Vehicle (12% Captisol®; 0.5% w/v HPMC and 0.1% w/v Tween-80; 5 ml/kg via the intraperitoneal route) was prepared using autoclaved deionized water not more than one week prior to use.
(§3) The control for the neuropathic pain model was lamotrigine, administered at 30 mg/kg via oral delivery. The control for the inflammatory pain model was diclofenac, administered at 30 mg/kg via oral delivery. Statistical analysis was performed using one-way ANOVA, and comparisons were performed with time-matched vehicle group using Tukey's HSD test wherein *p<0.05, **p<0.01, ***p<0.001.
Neuropathic pain was induced by partial ligation of the sciatic nerve. Briefly, the rats were anaesthetised (isoflurane/O2 inhalation), the left sciatic nerve exposed at mid-thigh level through a small incision and ⅓ to ½ of the nerve thickness tightly ligated within a 7.0 silk suture. The wound was closed with surgical glue. Animals were allowed to recover and tested 12-15 days following surgery.
Withdrawal thresholds were measured on both the ipsilateral (ligated) and contralateral (non-ligated) paws, prior to (predose) and then up to 24 h following drug or vehicle administration.
Pre-dose behavioural measurements were obtained by measuring paw withdrawals 14 days following nerve ligation; before the initiation of drug treatment. Following treatment, further readings were taken at 1, 3, 6 and 24 hour after administration.
(§4) Mechanical hyperalgesia was examined in a model of neuropathic pain by measuring paw withdrawal thresholds (PWT) to increasing mechanical force applied to the dorsal surface of the rat paw using an Analgesymeter (Ugo-Basile, Milan) equipped with a wedge-shaped probe (area 1.75 mm^2). Cut-off was set at 250 g and the end-point was taken as withdrawal of the hind paw. Both ipsilateral and contralateral paw withdrawal readings were taken.
Cold sensitivity can be assessed using a commercially available cold-plate (Ugo Basile, Milan). The cold plate is allowed to stabilize for 5 minutes at the set temperature prior to testing. Paw withdrawal latencies (PWL) are determined with the cold-plate set at 10° C. The animals are lightly restrained and each hind paw in turn placed onto the surface of the cold-plate. The end point is taken as the withdrawal of the paw and recorded as the withdrawal latency for the ipsilateral and the contralateral paw. A maximum cut-off of 30 seconds is used for each paw.
(§5) Data were expressed as withdrawal threshold (g) and percentage reversals calculated according to the following formula: […]

[2] = test system: rat model of persistent inflammatory pain; assay: Persistent inflammatory pain model (FCA), paw withdrawal thresholds; assay type: in vivo
Experimental: as §1, §2, §3
Mechanical hyperalgesia was examined in a model of persistent inflammatory pain.
The hyperalgesia was induced by an intraplantar injection (25 μl) of Freund's Complete Adjuvant (FCA) into the left hind paw.
To assess the effect of the test compound, paw withdrawal thresholds were measured on both the ipsilateral (FCA-injected) and contralateral (non-injected) paws, prior to (naïve) and 24 h following FCA injection (predose), and then at 1, 3, 6 and 24 h after drug or vehicle administration.
as §4, §5

[3] = target: T1, human Kv3.1 channels (Homo sapiens, UniProt P48547); assay: hKv3.1 IonWorks Quattro whole-cell current potentiation assay; assay type: cell-based; conditions: for % current increase @ conc 1.56 μM: Kv3.1, 1.56 μM; for % current increase @ conc 3.12 μM: Kv3.1, 3.12 μM; for % current increase @ conc 12.5 μM: Kv3.1, 12.5 μM; for EC50: hKv3.1, -15 mV voltage step, read-out: pEC50 (Kv3.1) (converted)
T1 construct: expressed in transfected cells; host or cells: CHO/Gam/E1A-clone22 (CGE22) cells, CHO-K1-derived, transiently transduced with BacMam (pFBM/human Kv3.1, MOI 50)
T1 sequence (P48547 1-511): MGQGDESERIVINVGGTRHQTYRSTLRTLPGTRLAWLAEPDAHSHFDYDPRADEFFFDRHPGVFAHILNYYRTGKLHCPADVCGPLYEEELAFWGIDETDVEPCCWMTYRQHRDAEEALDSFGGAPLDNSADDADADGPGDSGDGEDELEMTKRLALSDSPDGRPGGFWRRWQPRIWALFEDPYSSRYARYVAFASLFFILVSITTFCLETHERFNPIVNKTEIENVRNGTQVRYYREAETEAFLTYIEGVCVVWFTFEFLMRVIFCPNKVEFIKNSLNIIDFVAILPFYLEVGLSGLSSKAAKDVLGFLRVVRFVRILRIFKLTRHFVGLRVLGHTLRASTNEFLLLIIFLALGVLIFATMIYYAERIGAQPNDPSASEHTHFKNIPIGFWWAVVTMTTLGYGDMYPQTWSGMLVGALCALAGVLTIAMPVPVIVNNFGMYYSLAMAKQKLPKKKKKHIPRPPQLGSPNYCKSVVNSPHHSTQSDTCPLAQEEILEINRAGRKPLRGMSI
Excerpt: To assess compound effects on human Kv3.1 channels (hKv3.1), CHO/Gam/E1A-clone22 alias CGE22 cells were transduced using a hKv3.1 BacMam reagent. This cell line was designed to be an improved CHO-K1-based host for enhanced recombinant protein expression as compared to wild type CHO-K1. The cell line was generated following the transduction of CHO-K1 cells with a BacMam virus expressing the Adenovirus-Gam1 protein and selection with Geneticin-G418, to generate a stable cell line, CHO/Gam-A3. CHO/Gam-A3 cells were transfected with pCDNA3-E1A-Hygro, followed by hygromycin-B selection and FACS sorting to obtain single-cell clones. BacMam-Luciferase and BacMam-GFP viruses were then used in transient transduction studies to select the clone based on highest BacMam transduction and recombinant protein expression. CGE22 cells were cultured in the same medium used for the hKv3.2 CHO-K1 stable cell line with the addition of 300 ug/ml hygromycin-B and 300 ug/ml G418. All other conditions were identical to those for hKv3.2 CHO-K1 cells. The day before an experiment 10 million CGE22 cells were plated in a T175 culture flask and the hKv3.1 BacMam reagent (pFBM/human Kv3.1) was added (MOI of 50). Transduced cells were used 24 h later.
Cell Preparation for Ion Works Quattro™ Experiments The day of the experiment, cells were removed from the incubator and the culture medium removed. Cells were washed with 5 ml of Dulbecco's PBS (DPBS) calcium and magnesium free and detached by the addition of 3 ml Versene (Invitrogen, Italy) followed by a brief incubation at 37° C. for 5 minutes. The flask was tapped to dislodge cells and 10 ml of DPBS containing calcium and magnesium was added to prepare a cell suspension. The cell suspension was then placed into a 15 ml centrifuge tube and centrifuged for 2 min at 1200 rpm. After centrifugation, the supernatant was removed and the cell pellet re-suspended in 4 ml of DPBS containing calcium and magnesium using a 5 ml pipette to break up the pellet. Cell suspension volume was then corrected to give a cell concentration for the assay of approximately 3 million cells per ml.
Experiments were conducted at r.t. using lonWorks Quattro™ planar array electrophysiology technology (Molecular Devices Corp.) with PatchPlate™ PPC. Stimulation protocols and data acquisition were carried out using a microcomputer (Dell Pentium 4). Planar electrode hole resistances (Rp) were determined by applying a 10 mV voltage step across each well. These measurements were performed before cell addition. After cell addition and seal formation, a seal test was performed by applying a voltage step from −80 mV to −70 mV for 160 ms. Following this, amphotericin-B solution was added to the intracellular face of the electrode to achieve intracellular access. Cells were held at −70 mV. Leak subtraction was conducted in all experiments by applying 50 ms hyperpolarizing (10 mV) prepulses to evoke leak currents followed by a 20 ms period at the holding potential before test pulses. For hKv3.2 and hKv3.1 assays, from the holding potential of −70 mV, a first test pulse to −15 mV was applied for 100 ms and following a further 100 ms at −70 mV, a second pulse to 40 mV was applied for 50 ms. Cells were then maintained for a further 100 ms at −100 mV and then a voltage ramp from −100 mV to 40 mV was applied over 200 ms. For hKv3.3 assays, from the holding potential of −70 mV, a first test pulse to 0 mV was applied for 500 ms and following a further 100 ms at −70 mV, a second pulse to 40 mV was applied for 200 ms. These longer test pulses were used to study inactivation of hKv3.3 channels. Test pulses protocol may be performed in the absence (pre-read) and presence (post-read) of the test compound. Pre- and post-reads may be separated by the compound addition followed by a 3 minute incubation.
The intracellular solution contained the following (in mM): K-gluconate 100, KCl 54, MgCl2 3.2, HEPES 5, adjusted to pH 7.3 with KOH. […]

## Nc1nnc(-c2cccc(Cl)c2Cl)c(N)n1 [lamotrigine]
[1]; positive control, 30 mg/kg oral
  Peak reversal of mechanical sensitivity: 67%

## Cc1ccc(Oc2ncc(N3C(=O)NC(C)(C)C3=O)cn2)c2c1OCC21CC1 [Compound X, 5,5-dimethyl-3-[2-(7-methylspiro[2H-benzofuran-3,1′-cyclopropane]-4-yl)oxypyrimidin-5-yl]imidazolidine-2,4-dione]
[2]; 10 mg/kg i.p., 3 h post-dose
  Peak reversal of mechanical sensitivity: 64%
[2]; 30 mg/kg i.p., 1 h post-dose
  Peak reversal of mechanical sensitivity: 74%
[2]; 60 mg/kg i.p., 1 h post-dose
  Peak reversal of mechanical sensitivity: 92%
[2]; 60 mg/kg i.p., 6 h post-dose
  reversal of mechanical sensitivity: 45%
[2]; 10, 30, 60 mg/kg i.p.
  effect on mechanical sensitivity: dose-related reversal of mechanical sensitivity
[2]; rat, in vivo
  time of peak reversal post-dose: 1 to 3 h
[1]; 10 mg/kg i.p.
  Peak reversal of mechanical sensitivity: 31%
[1]; 30 mg/kg i.p.
  Peak reversal of mechanical sensitivity: 73%
[1]; 60 mg/kg i.p.
  Peak reversal of mechanical sensitivity: 81%
[1]; 10, 30, 60 mg/kg i.p.
  effect on mechanical sensitivity, ipsilateral paw: dose-related reversal of mechanical sensitivity
[1]; administered acutely, neuropathic and inflammatory pain models
  changes in normal behaviour: without causing significant changes in normal behaviour
[1]; rat, in vivo
  contralateral paw withdrawal thresholds to mechanical pressure: significant increases
  duration of efficacy: up to 6 h
  time of maximal efficacy after dosing: 1 to 3 h
[1]; results not shown
  effect on cold sensitivity, ipsilateral paw: marked, dose-related reversal of cold sensitivity
[1]; treated rats
  general behaviour observation: induced flaccidity in some of the treated rats

## O=C(O)Cc1ccccc1Nc1c(Cl)cccc1Cl [diclofenac]
[2]; positive control, 30 mg/kg oral, 1 h post-dose
  peak reversals in mechanical sensitivity: 64%

## Cc1ccc(O[C@H]2C[C@H](N3C(=O)NC(C)(C)C3=O)C2)c2c1OCC21CC1
[3]
  % current increase @ conc 1.56 μM: 25%
  % current increase @ conc 3.12 μM: 60%
  % current increase @ conc 12.5 μM: 105%
  EC50: 3.55 µM

## Cc1ccc(O[C@@H]2CC[C@@H](N3C(=O)NC(C)(C)C3=O)C2)c2c1OCC21CC1 (racemic)
[3]
  % current increase @ conc 1.56 μM: 7%
  % current increase @ conc 3.12 μM: 10%
  % current increase @ conc 12.5 μM: 12%
  EC50: > 50.1 µM
